Results as given in patent US20260327255A1, “LIGAND-DIRECTED COVALENT MODIFICATION OF AMINO ACID SIDE CHAINS USING CYCLIC IMINE MANNICH ELECTROPHILES” (Purdue Research Foundation, priority 2022, published 2026).
“Also recorded” adds a separate entry of the source.

How the values were obtained:
Aqueous solubility = format: physicochemical
[1] = Reaction of imine 1 with 1H-pyrrole-1-propionate (pyrrole-Lys mimic)
Method: (§1) Reactions were conducted under pseudo first order conditions with an excess of one reactant. The reduction in the concentration of the limiting reactant A was measured at various time points by HPLC analysis. Rates of imine 1 with N-Ac-Tyr-NMe, indole-3-butyric acid, and 1H-pyrrole-1-propionic acid and of imine 2 with N-Ac-Tyr-NMe were measured.
(§2) Reaction of (A) imine 1 (5 mM) with N-Ac-Tyr-NHMe (100 mM) at 37° C. or (B) at room temperature. (C) imine 2 (5 mM) with N-Ac-Tyr-NHMe (100 mM) at 37° C. (D) imine 1 (5 mM) with indole-3-butyrate (100 mM) (E) imine 1 (10 mM) with 1 mM 1H-pyrrole-1-propionate (F) iminium 6 (5 mM) with N-Ac-Tyr-NHMe (100 mM) at 37° C. at pH 7 (G) iminium 6 (5 mM) with N-Ac-Tyr-NHMe (100 mM) at 37° C. at pH 3 at indicated time points.
We also tested 1 with N-ethyl pyrrole as a mimic of pyrrolated lysine, a lesser-known post-translational modification (Miyashita et al. Sci. Rep. 2014, 4, 5343; Chikazawa et al. J. Biol. Chem. 2020, 295(22), 7697-7709). […] Previous work with N-pyrrolyl alanine derivatives has shown fast and selective Pictet-Spengler reactions with aldehyde-containing biomolecules (Pomplun et al. Angew. Chemie Int. Ed. 2019, 58(11), 3542-3547).^50 Under conditions of 10 mM cyclic imine 1 with 1 mM 1H-pyrrole-1-propionate (as a soluble pyrrole-Lys mimic), we determined a second order rate constant of 5.9×10^−2 M^−1 s^−1 (FIGS. 3 and 5).

[2] = Stability of cyclic imines in aqueous media (LC/MS); format: physicochemical; conditions: 96-hours incubation in PBS, 0.1M HCl, 0.1M NaOH
Method: To validate the stability of cyclic imines as covalent warheads, imines 1-4 were evaluated by LC/MS after 96-hours incubation in PBS, 0.1M HCl, and 0.1M NaOH (Table 1).

[3] = Amino acid mimetic reactivity, LC/MS: pyrrole (pyrrole-lysine mimic); conditions: 100 mM, PBS pH 7, 37° C., 24 h
Method: (§3) Cyclic imine 1 was incubated with 100 mM compounds in PBS (pH 7) at 37° C. for 24 hours and then analyzed by LC/MS. (A) Compounds include β-mercaptoethanol, imidazole, isopropanol, n-butylamine, propionic acid, 3-methyl indole, and N-ethyl pyrrole (pyrrole-lysine). UV LC/MS traces for (B) β-mercaptoethanol, (C) 3-methyl indole, and (D) N-ethyl pyrrole. LR-ESI-MS: imine-thiol product m/z calc. for [M+H]^+ 231.1; found: 231.2. Imine-indole product m/z calc. for [M+H]^+: 284.2; found: 284.2. Imine-pyrrole product m/z calc. for |M+H|^+: 248.2; found: 248.2.
(§4) To assess the selectivity to other amino acids, we tested compounds mimicking amino acid side chain functional groups, including β-mercaptoethanol (cysteine), imidazole (histidine), isopropanol (serine/threonine), n-butylamine (lysine), propionic acid (aspartic acid/glutamic acid), 3-methyl indole (tryptophan), and N-ethyl pyrrole (pyrrole-lysine). […] Conjugation to thiols was expected based on previous reports (Minakawa et al. J. Org. Chem. 2008, 73(21), 8669-8672; Cavaca et al. Mol. 2022, 27(5), 1673).

angiotensin II = assay: Labeling of angiotensin II with imine 1 (LC/MS); conditions: 50 mM imine 1, 10 mM angiotensin II, 16 hours
Method: UV trace of reaction mixture of compound 1 (cyclic imine 1) with angiotensin II. […] (Mono cyclic imine-angiotensin II conjugate peak at 2 min): calc. [M+H]^+: 1199.2, found [M+H]^+: 1199.3, [M+2H]^2+: 600.3, [M+3H]^3+: 400.6. (Di-cyclic imine-angiotensin II conjugate peak at 2.1 min): calc. [M+H]^+: 1351.2, found [M+H]^+: 1351.8, [M+2H]^2+: 676.4, [M+3H]^3+: 451.0. (Unmodified angiotensin II (8-mer) peak at 2.2 min): m/z calc. [M+H]^+: 1047.2, found [M+H]^+: 1047.2, [M+2H]^2+: 524., [M+3H]^3+: 350.
(§5) To confirm reactivity and selectivity with a peptide context, imine 1 (50 mM) was incubated with the tyrosine-containing 8-mer peptide angiotensin II ([…]) (10 mM) (FIG. 10). The combined yield of mono-labeled and di-labeled angiotensin II was ~45% as quantified by LC/MS. Cyclic imine 1 (50 mM) was also incubated with a small protein (recombinant CBX8 chromodomain (ChD), which contains multiple tyrosines and tryptophans; 10 μM in PBS buffer (pH=7; 0.02% Tween 20)) at room temperature overnight. With overnight incubation, two to three additions of the imine were observed by mass spectrometry.

[4] = Reaction of imine 1 with indole-3-butyrate (tryptophan mimic)
Method: as §1
(§6) Reaction of imine 1 (5 mM) with (A) N-Ac-Tyr-NHMe (100 mM) or (B) indole-3-butyrate (100 mM) at indicated time points.
as §2

[5] = target: T1, recombinant CBX8 chromodomain (ChD) (Homo sapiens, UniProt Q9HC52); assay: Labeling of CBX8 chromodomain with imine 1 (mass spectrometry); format: binding; conditions: 50 mM imine, 10 μM CBX8 ChD, PBS pH 7, 0.02% Tween 20, room temperature overnight
T1 construct: expected mass of CBX8 ChD 8792 Da
T1 sequence (Q9HC52 8-69 limits assumed): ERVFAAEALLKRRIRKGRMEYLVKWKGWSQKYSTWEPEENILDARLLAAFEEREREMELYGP
Method: as §5

[6] = Amino acid mimetic reactivity, LC/MS: indole (tryptophan mimic); conditions: 100 mM, PBS pH 7, 37° C., 24 h
Method: as §3, §4

[7] = Reaction of cyclic imines with N-acetyl-L-tyrosine methylamide (HPLC/LC-MS); conditions: for reaction half-life (t1/2): 5 mM imine, 100 mM Ac-Tyr-NHMe; for reaction half-life (t1/2) / reactivity to tyrosine: PBS pH 7, 37° C.; for second-order rate constant: pseudo-first order conditions; for reactivity to tyrosine: in words, Ac-Tyr-NHMe
Method: The reaction was monitored using liquid chromatography/mass spectrometry (LC/MS).
as §1, §6, §2
Several cyclic imines (5 mM) were incubated with a simple tyrosine analog N-acetyl-L-tyrosine methylamide (Ac-Tyr-NHMe) in PBS pH 7 at 37° C. (FIGS. 2-3). The reactivity was quantitated by UV integration on HPLC with liquid chromatography/mass spectrometry (LC/MS) confirmation of reaction product identity (FIG. 4). Under these pseudo-first order reaction conditions, reaction half-lives and second-order rate constants were determined.

[8] = Effect of thiols on tyrosine labeling with imine 1; conditions: 5 mM imine, 100 mM Tyr, 5 mM cysteine, vs control
Method: Cyclic imine 1 (5 mM) was incubated with 100 mM acetyl tyrosine methyl amide and 5 mM […] (in the presence of 5 mM TCEP). Reaction yield was quantified based on UV integrations of Mannich product at 4 h, 9 h, 17 h, 24 h, and 32 h. Imine consumption rate was quantified based on the UV integration of Mannich product at 4 h, 9 h, 17 h, 24 h, and 32 h.
Thiol addition to the imine is reversible, yet this reaction may limit the desired reactivity of imines to tyrosines in cellular contexts where glutathione concentrations can be 1-10 mM (Meister et al. J. Biol. Chem. 1988, 263(33), 17205-17208; Forman et al. Mol. Aspects Med. 2009, 30(1-2), 1). To evaluate this reversibility, the pre-formed thioaminal product of 1 with N-acetyl-cysteine methyl amide was treated with either glutathione (1 M) or Ac-Tyr-NHMe (100 mM). […] To evaluate potential effects of cellular thiols on tyrosine labeling rate, the cyclic imine-Tyr reaction (at 5 mM and 100 mM, respectively) was evaluated over time in the presence of cysteine (5 mM) (FIG. 9).

[9] = Amino acid mimetic reactivity, LC/MS: thiol (cysteine mimic); conditions: 100 mM, PBS pH 7, 37° C., 24 h
Method: as §3, §4

[10] = Hydrolysis of aromatic ester imine in water / PBS; format: physicochemical

Structure (SMILES): Cc1c[nH]c2ccccc12 [3-methyl indole]
- aqueous solubility (Aqueous solubility): poor aqueous solubility

Structure (SMILES): O=C1C=NC2CCCCC2N1 (stereo not shown) [Compound 1]
- second order rate constant ([1]; 10 mM imine 1, 1 mM 1H-pyrrole-1-propionate): 0.059 M⁻¹ s⁻¹
- increase in rate constant relative to Tyr ([1]; 1H-pyrrole-1-propionate vs Tyr): ~ 200 fold
- stability (in words) [2]: stable under all conditions
- conjugate formation with N-ethyl pyrrole [3]: Stable conjugates
- combined yield of mono-labeled and di-labeled angiotensin II (angiotensin II): ~ 45%
- fold lower rate constant than to tyrosine ([4]; indole-3-butyrate vs tyrosine): 2 fold
- second order rate constant (k2) ([4]; indole-3-butyrate, 37° C.): 0.00011 M⁻¹ s⁻¹
- number of additions of the imine [5]: two to three
- conjugate formation with 3-methyl indole [6]: Stable conjugates; also recorded: multiple products
- reaction half-life (t1/2) [7]: 8 ± 0.3 h
- second-order rate constant ([7]; 37° C.): 0.00024 M⁻¹ s⁻¹
- second-order rate constant ([7]; R.T.): 0.00015 M⁻¹ s⁻¹
- effect of cysteine on tyrosine-imine reaction rate [8]: slightly slowed the reaction rate
- conjugate formation with β-mercaptoethanol [9]: Stable conjugates

Structure (SMILES): O=C1C=NC2CCCCC2O1 (stereo not shown) [Compound 2]
- stability (in words) [2]: hydrolyzed under basic conditions
- reaction half-life (t1/2) [7]: 0.667 h
- second-order rate constant ([7]; 37° C.): 0.0029 M⁻¹ s⁻¹
- increase in rate constant relative to 1 ([7]; relative to imine 1, Ac-Tyr-NHMe): ~ 10 fold

Structure (SMILES): O=c1cnc2ccccc2o1 [Compound 3]
- stability (in words) [2]: hydrolyzed under basic conditions; also recorded: unstable in PBS
- degraded at 1 h ([10]; PBS, pH 7, within an hour): 70%
- stability in water ([10]; water): stable in water
- reactivity to tyrosine [7]: did increase the rate of Mannich addition; also recorded: low intrinsic reactivity

Structure (SMILES): Oc1cnc2ccccc2n1 [Compound 4]
- stability (in words) [2]: stable under all conditions
- reactivity to tyrosine [7]: unreactive

Structure (SMILES): C#CCn1c(=O)cnc2ccccc21 [Compound 5]
- reactivity to tyrosine [7]: unreactive

Structure (SMILES): C1=NCCc2ccccc21 [Compound 9]
- reactivity to tyrosine [7]: limited

Structure (SMILES): CC1=NCCC1 [Compound 10]
- reactivity to tyrosine [7]: no
